In ChEMBL document CHEMBL1201862, “PubChem BioAssay data set” (2004):
Activity calls are given as the source filed them.

What was measured:
fMet-Leu-Phe receptor = target: T1, fMet-Leu-Phe receptor (Homo sapiens, UniProt P21462); assay: formyl peptide receptor binders – dose response (AID 519); type: functional
T1 sequence (P21462 whole entry): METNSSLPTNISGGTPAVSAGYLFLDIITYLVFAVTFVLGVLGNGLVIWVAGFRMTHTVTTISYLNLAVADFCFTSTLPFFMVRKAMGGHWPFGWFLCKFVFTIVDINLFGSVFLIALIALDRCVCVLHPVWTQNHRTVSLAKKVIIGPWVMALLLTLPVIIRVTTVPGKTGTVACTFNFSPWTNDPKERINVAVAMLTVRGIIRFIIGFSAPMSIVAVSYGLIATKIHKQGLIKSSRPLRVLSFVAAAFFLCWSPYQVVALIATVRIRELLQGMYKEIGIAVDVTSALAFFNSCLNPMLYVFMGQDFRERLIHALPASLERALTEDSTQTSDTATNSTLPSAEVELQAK

[1] = Dd2 malaria parasite growth inhibition potency – SYBR Green, dry powder samples, dose response (AID 1159566); type: functional, cell-based;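 note: potency for growth inhibition with lower SYBR green DNA signal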
[2] = P. falciparum Dd2 growth inhibitors, dose response, SYBR Green, cherry-picked samples (AID 1159567); type: functional, cell-based
[3] = growth inhibition of yeast DHODH-expressing 3D7 parasites – SYBR Green, dry powder samples, dose response (AID 1159570); type: functional, cell-based;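 note: parasite growth measured after 72 hours of compound exposure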
[4] = growth inhibition of PfATP4-mutant resistant parasites – NITD609-resistant line, SYBR Green, dry powder, dose response (AID 1159571); type: functional, cell-based;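 note: parasites synchronized at ring stage by sorbitol before testing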
[5] = target: Intestinal-type alkaline phosphatase (Homo sapiens, UniProt P09923); assay: inhibition of human intestinal alkaline phosphatase – biochemical, dose response (AID 488876); type: functional
[6] = target: Intestinal-type alkaline phosphatase (Mus musculus, UniProt P24822); assay: PubChem AID 488785; type: functional
[7] = target: T2, Alkaline phosphatase, tissue-nonspecific isozyme (Homo sapiens, UniProt P05186); assay: TNAP enzyme inhibition by screening hits, dose response, selectivity assay for mouse IAP inhibitor project, biochemical, human TNAP, uHTS hits (AID 488906); type: functional
T2 sequence (P05186 whole entry): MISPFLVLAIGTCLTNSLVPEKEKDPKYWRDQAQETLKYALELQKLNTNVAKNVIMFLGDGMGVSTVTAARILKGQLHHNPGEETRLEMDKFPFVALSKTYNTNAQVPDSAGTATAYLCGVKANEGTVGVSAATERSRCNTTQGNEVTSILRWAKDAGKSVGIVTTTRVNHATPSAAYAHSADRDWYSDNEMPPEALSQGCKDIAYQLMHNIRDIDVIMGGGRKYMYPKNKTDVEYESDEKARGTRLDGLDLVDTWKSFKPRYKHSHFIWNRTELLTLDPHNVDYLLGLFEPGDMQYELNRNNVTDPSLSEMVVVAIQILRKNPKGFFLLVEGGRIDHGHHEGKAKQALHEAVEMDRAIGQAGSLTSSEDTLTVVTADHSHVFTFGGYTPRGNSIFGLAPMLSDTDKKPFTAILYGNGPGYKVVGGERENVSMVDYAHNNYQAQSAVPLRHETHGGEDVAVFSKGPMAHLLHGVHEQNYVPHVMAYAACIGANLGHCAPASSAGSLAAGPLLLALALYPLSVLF

[8] = HIV-1 Vif–A3G interaction blockers – biochemical, TR-FRET, GST-Vif 1-94, biotin-A3G peptide, dose response retest, primary screen (AID 1117319); type: functional;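 note: TR-FRET signal of purified GST-Vif binding a biotinylated A3G peptide; inhibitors lower the FRET signal by blocking Vif and A3G binding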
[9] = viability of uninfected HEp-2 cells – cell-based, HTS, cytotoxicity control for RSV inhibitor project, dose response (AID 2410); type: functional; conditions: human respiratory syncytial virus
HeLa = assay: ATP-based viability loss in HeLa cells – cell-based, CellTiter-Glo luminescence, cherry-pick samples, cytotoxicity control for MITF activator project, dose response (AID 540259); type: functional; conditions: Homo sapiens
BJ [10] = assay: BJ-TERT fibroblast viability loss – cell-based, RAS-independent, luminescence, dose response (AID 1933); type: functional; conditions: Homo sapiens
[11] = DRD fibroblast viability loss – cell-based, non-viral oncogenic, luminescence, dose response (AID 1934); type: functional; conditions: Homo sapiens
Protein RecA = target: T3, Protein RecA (Mycobacterium tuberculosis, UniProt P9WHJ3); assay: Fluorescence Cell-Free Homogeneous Dose Retest to Identify Inhibitors of RecA-Intein Splicing Activity. [Related pubchem assays (depositor defined):AID2097, AID2223, AID489010, AID492950]; type: functional
T3 sequence (P9WHJ3 whole entry): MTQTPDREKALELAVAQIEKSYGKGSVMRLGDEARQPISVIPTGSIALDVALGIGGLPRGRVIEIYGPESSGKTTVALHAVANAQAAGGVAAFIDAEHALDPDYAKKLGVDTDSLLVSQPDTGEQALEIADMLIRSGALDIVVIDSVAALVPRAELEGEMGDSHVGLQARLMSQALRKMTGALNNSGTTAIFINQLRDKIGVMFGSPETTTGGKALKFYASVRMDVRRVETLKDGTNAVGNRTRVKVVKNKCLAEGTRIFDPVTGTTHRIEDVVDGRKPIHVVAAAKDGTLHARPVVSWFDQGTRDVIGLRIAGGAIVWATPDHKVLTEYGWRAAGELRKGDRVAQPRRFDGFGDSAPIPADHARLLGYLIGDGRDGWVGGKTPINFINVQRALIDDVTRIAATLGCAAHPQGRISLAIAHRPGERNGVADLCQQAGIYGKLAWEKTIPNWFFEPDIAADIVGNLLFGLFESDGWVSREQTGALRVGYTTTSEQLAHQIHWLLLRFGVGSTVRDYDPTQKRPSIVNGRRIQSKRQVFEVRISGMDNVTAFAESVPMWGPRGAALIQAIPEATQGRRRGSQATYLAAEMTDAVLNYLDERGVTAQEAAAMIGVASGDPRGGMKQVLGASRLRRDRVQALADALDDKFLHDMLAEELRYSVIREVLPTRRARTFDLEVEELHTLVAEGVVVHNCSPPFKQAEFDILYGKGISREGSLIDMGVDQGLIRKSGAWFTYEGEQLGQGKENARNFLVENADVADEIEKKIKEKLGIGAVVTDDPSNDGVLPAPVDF

BJ [12] = assay: BJ-TERT-LT-ST fibroblast viability loss – cell-based, RAS-independent, luminescence, dose response (AID 1935); type: functional; conditions: Homo sapiens;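 note: BJ fibroblasts immortalized with TERT plus LT and ST oncogenes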
HEK293 [13] = assay: inhibition of NOD1-driven NF-kB reporter – cell-based, luminescence, uHTS, primary screen (AID 1578); type: functional; conditions: Homo sapiens
BJ [14] = assay: cells; type: functional, cell-based; conditions: Homo sapiens
[15] = target: T4, Replicative DNA helicase DnaB (Mycobacterium tuberculosis, UniProt P9WMR3); assay: DnaB intein splicing inhibitors, dose response, biochemical, cell-free fluorescence (AID 449749); type: functional
T4 sequence (P9WMR3 whole entry): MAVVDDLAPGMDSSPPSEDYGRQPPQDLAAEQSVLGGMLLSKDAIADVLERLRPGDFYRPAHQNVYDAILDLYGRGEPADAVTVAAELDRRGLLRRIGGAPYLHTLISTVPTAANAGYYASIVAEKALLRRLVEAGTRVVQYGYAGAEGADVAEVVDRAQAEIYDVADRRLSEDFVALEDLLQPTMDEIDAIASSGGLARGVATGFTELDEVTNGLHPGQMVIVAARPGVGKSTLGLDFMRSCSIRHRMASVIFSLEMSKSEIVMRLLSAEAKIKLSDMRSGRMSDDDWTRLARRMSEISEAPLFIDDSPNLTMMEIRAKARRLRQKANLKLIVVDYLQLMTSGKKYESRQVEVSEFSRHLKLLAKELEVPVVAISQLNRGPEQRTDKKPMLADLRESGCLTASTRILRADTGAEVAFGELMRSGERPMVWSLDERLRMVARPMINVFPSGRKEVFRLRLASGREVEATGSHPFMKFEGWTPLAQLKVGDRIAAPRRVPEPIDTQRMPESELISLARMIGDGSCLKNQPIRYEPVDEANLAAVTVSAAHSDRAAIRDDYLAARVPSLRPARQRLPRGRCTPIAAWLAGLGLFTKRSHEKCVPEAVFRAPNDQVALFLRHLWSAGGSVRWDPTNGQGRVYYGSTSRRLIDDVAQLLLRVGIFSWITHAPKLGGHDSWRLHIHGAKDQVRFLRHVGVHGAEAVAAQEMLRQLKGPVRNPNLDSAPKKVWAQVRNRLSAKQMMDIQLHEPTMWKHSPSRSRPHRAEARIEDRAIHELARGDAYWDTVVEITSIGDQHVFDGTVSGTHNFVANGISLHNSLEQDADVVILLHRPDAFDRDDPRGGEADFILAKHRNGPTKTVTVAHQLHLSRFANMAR

HEK293 [16] = assay: NOD2 signaling inhibitors in MDP-stimulated cells, cell-based, uHTS, luminescence (AID 2001); type: functional; conditions: Homo sapiens
HEK293 [17] = assay: cells; type: functional, cell-based; conditions: Homo sapiens
HEK293 [18] = assay: cells; type: functional, cell-based; conditions: Homo sapiens; remark: listed apart in the source
Large T antigen = Large T antigen (Simian virus 40, UniProt P03070); type: functional, Betapolyomavirus macacae;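 note: Confirmatory-stage PubChem screen for compounds that inhibit SV40 T antigen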
[19] = Luminescence Cell-Based Dose Confirmation HTS to Identify Inhibitors of Platelet Dense Granule Release. [Related pubchem assays: 1663 (Primary HTS), 1678 (Summary of Project)]; type: functional
[20] = target: T5, Rac GTPase-activating protein 1 (Homo sapiens, UniProt Q9H0H5); assay: blockers of MgcRacGAP-driven Rac1 GTP hydrolysis – biochemical, ADP Hunter fluorescence, primary and confirmatory, confirmation (AID 624330); type: functional
T5 sequence (Q9H0H5 whole entry): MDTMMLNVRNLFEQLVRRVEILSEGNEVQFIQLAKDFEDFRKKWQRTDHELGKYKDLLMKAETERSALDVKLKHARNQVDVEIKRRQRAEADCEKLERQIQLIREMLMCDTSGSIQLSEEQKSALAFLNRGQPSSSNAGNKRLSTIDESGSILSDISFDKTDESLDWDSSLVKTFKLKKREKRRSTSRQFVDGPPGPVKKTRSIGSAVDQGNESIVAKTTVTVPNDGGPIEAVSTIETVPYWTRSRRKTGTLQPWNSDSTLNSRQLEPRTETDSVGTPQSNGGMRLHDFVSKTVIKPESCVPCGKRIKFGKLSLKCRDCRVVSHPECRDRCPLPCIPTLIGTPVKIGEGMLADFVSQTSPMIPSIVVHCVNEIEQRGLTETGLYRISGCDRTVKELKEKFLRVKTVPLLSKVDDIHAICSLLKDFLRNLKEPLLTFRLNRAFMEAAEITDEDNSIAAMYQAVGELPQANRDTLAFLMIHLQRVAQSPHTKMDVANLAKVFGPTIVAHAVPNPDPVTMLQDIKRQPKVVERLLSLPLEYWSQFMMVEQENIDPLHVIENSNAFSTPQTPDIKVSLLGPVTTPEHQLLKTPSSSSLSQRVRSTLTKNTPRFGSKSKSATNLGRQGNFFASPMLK

[21] = target: Luciferin 4-monooxygenase (Photinus pyralis, UniProt P08659); assay: inhibition of purified Photinus pyralis luciferase – biochemical, luminescence, dose response (AID 1891)
Sequence of Luciferin 4-monooxygenase (P08659 whole entry): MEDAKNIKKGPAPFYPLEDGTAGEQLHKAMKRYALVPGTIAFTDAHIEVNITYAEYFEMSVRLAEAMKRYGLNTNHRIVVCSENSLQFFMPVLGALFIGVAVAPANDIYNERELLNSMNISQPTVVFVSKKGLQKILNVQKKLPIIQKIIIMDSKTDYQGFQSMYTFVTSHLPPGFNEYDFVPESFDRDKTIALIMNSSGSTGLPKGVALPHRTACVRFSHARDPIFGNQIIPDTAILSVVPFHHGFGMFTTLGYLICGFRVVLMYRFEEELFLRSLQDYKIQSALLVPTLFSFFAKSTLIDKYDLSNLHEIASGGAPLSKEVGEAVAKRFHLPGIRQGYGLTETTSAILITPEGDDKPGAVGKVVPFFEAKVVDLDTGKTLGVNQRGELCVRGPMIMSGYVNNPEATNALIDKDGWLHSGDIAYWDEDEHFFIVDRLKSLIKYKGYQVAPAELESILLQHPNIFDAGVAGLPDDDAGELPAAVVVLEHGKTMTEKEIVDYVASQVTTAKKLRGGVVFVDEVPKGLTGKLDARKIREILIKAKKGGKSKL

Sequence of Intestinal-type alkaline phosphatase (Homo sapiens, UniProt P09923) (P09923 whole entry): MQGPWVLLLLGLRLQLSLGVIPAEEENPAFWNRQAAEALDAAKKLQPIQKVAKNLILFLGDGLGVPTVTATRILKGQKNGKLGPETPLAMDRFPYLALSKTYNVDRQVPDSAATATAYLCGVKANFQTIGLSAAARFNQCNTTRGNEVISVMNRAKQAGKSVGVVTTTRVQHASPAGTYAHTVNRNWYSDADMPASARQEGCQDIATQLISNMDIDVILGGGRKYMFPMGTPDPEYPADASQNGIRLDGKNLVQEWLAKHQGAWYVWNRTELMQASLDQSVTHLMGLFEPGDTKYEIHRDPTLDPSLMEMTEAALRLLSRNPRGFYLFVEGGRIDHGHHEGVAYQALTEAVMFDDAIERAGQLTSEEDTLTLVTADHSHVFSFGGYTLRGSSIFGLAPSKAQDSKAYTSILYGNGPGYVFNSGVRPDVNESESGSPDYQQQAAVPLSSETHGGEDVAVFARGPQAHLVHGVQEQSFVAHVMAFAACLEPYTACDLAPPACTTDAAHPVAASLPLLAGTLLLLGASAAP
Sequence of Intestinal-type alkaline phosphatase (Mus musculus, UniProt P24822) (P24822 whole entry): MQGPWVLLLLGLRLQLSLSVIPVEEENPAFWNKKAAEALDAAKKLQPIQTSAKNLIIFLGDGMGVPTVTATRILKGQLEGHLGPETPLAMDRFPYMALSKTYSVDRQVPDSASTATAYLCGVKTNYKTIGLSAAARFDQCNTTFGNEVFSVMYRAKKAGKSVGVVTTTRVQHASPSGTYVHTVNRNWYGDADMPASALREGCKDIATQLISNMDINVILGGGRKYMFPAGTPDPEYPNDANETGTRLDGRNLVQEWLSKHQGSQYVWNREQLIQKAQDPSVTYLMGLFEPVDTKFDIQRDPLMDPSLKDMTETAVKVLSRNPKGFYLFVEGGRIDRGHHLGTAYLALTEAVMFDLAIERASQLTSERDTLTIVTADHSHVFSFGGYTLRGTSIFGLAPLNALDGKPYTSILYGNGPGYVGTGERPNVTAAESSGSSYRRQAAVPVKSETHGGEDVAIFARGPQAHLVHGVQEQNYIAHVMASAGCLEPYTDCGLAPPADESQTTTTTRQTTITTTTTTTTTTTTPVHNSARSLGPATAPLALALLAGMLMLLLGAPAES
Sequence of Large T antigen (P03070 whole entry): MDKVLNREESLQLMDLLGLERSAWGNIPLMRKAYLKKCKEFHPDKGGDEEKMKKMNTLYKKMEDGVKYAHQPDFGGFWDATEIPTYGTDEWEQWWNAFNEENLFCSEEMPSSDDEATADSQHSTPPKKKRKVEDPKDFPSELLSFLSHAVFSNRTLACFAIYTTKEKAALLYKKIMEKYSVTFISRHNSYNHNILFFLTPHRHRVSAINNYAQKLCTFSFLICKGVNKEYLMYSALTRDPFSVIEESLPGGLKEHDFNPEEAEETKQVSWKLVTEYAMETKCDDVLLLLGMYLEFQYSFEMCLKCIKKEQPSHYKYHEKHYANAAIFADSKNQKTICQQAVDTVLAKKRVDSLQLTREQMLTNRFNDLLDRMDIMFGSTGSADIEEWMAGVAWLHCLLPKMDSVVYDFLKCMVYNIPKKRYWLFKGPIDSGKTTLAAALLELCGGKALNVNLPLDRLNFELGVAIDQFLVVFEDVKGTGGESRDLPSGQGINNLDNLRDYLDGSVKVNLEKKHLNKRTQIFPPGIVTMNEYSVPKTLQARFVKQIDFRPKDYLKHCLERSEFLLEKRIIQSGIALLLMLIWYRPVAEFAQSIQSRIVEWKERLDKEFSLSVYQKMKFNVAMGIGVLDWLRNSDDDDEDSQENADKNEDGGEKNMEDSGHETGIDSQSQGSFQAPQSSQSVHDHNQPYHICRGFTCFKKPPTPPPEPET

CC1Cc2cc(C(=O)C3=C(O)C(=O)N(CCN4CCOCC4)C3c3ccccc3F)ccc2O1 (centres undefined)
Ki (fMet-Leu-Phe receptor): > 66.7 µM (inactive)

COc1ccc(C#Cc2ccc3c(c2)O[C@H](CN(C)S(=O)(=O)c2ccccc2F)[C@@H](C)CN([C@H](C)CO)S3(=O)=O)cc1
AC50 [1]: 1.12 µM (active) | AC50 [2]: 1.7 µM (active) | AC50 [3]: 1.38 µM (active) | AC50 [4]: 1.21 µM (active)

Cc1ccc(C(=O)C2=C(O)C(=O)N(c3cc(C)on3)C2c2cccc(Br)c2)cc1 (centres undefined)
Ki (fMet-Leu-Phe receptor): > 66.7 µM (inactive)

C=CCn1cc(CN2CCC(C(=O)Nc3cccc(-c4cccc(Cl)c4)c3)CC2)c(C)n1
IC50 [5]: 14.3 µM (active) | IC50 [6]: 10.3 µM (active) | IC50 [7]: 5.84 µM (active)

CCN(CC(=O)Nc1c(F)cccc1F)C(=O)CSC(=S)N1CCCC1
IC50 [8]: > 100 µM (active)

CCOC(=O)CSc1nnc(CNC(=O)c2cc(OCC)c(OCC)c(OCC)c2)n1C
Ki (fMet-Leu-Phe receptor): > 66.7 µM (inactive)

COc1ccccc1-c1cc2nc(C)cc(C)n2n1
IC50 (cells): 18.8 µM (active) | CC50 [9]: 22.5 µM (active)

C/C(=C\C(=O)c1ccc(Br)cc1)N1CCCCC1
IC50 [8]: > 100 µM (active)

Cc1nc2c(C#N)cnn2c(O)c1Cc1ccccc1
Ki (fMet-Leu-Phe receptor): 27.4 µM (inactive)

O=C1c2cccc(O)c2C(=O)c2c(O)cc(CO)cc21 [ALOE-EMODIN]
IC50 [5]: > 100 µM (inactive) | IC50 [6]: 2.88 µM (active) | IC50 [7]: > 100 µM (inactive)

COC(=O)N/N=C/c1ccc(-c2cccc(Cl)c2)o1
IC50 (cells): 24.9 µM (active) | CC50 [9]: 28.3 µM (active)

O=c1oc(-c2cccs2)nc2sc3c(c12)CCCCC3
AC50 (HeLa): 47.1 µM (active)

CCc1nc(N2CCN(C(=O)CCl)CC2)c2c3c(sc2n1)CC(C)CC3 (centres undefined)
EC50 (BJ [10]): 1.62 µM (active) | EC50 [11]: 5.84 µM (active) | EC50 (Protein RecA): 0.729 µM (active) | EC50 (BJ [12]): 5.72 µM (inconclusive) | EC50 (HEK293 [13]): > 20 µM (inactive) | EC50 (BJ [14]): 9.44 µM (inconclusive) | AC50 [15]: 1.92 µM (active) | IC50 (HEK293 [16]): 12 µM (inactive) | IC50 (HEK293 [17]): 8.57 µM (active) | IC50 (HEK293 [18]): > 20 µM (inactive)

Cc1nonc1C(=O)N/N=C/c1ccc(O)c(O)c1
IC50 (Large T antigen): 3.81 µM (active) | EC50 [19]: 0.868 µM (active) | IC50 [5]: 14 µM (active) | IC50 [20]: 18.6 µM (active) | IC50 [6]: 9.92 µM (active) | EC50 [21]: 4.26 µM (active) | IC50 [7]: 16.8 µM (active)

Cc1ccc(OC(=O)c2cccc(S(=O)(=O)N3CCCC3)c2)c(-n2nc3ccccc3n2)c1
AC50 (HeLa): 260 µM (active)

O=S(=O)(c1ccc2c(c1)OCCO2)N1CCC(c2nc(O)c3nnn(Cc4c(F)cccc4Cl)c3n2)CC1
IC50 (cells): 9.34 µM (active) | CC50 [9]: 34.2 µM (active)

COc1ccc(-c2ccc3c(N)c(C(=O)NC(C)C)sc3n2)cc1OC
IC50 (cells): 35.9 µM (active) | CC50 [9]: > 50 µM (active)

Cc1ccc(-n2nnnc2SCn2nnc3ccccc3c2=O)cc1
IC50 [8]: > 100 µM (active)
